# Where no end group is shown, it is not given here.
# Experiments:
# Assay in all cases: Histone peptide microarray
# Assay type in all cases: binding, human
# PHRF1 (RP) = settings: arrays performed twice; for Array Heatmap value (peptide array binding signal): PHRF1 (RP), GST-tagged, n of 4
# How it was run: (§1)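 GST-tagged PHD readers, 0.5 μM, probed on a microarray of 293 synthetic histone peptides carrying single or combinatorial PTMs (optimized Petell protocol). Signals are averaged over 4 replicates and expressed as relative binding.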
# CHD4 (PPCC) = settings: arrays performed twice; for Array Heatmap value (peptide array binding signal): CHD4 (PPCC), GST-tagged, n of 4
# How it was run: as §1
# ING5 = settings: arrays performed twice; for Array Heatmap value (peptide array binding signal): ING5, GST-tagged, n of 4
# How it was run: as §1
# KDM5A (1) = settings: arrays performed twice; for Array Heatmap value (peptide array binding signal): KDM5A (1), GST-tagged, n of 4
# How it was run: as §1
# ING3 = settings: arrays performed twice; for Array Heatmap value (peptide array binding signal): ING3, GST-tagged, n of 4
# How it was run: as §1
# BPTF (PB) = settings: arrays performed twice; for Array Heatmap value (peptide array binding signal): BPTF (PB), GST-tagged, n of 4
# How it was run: as §1
# CHD5 (PPCC) = settings: arrays performed twice; for Array Heatmap value (peptide array binding signal): CHD5 (PPCC), GST-tagged, n of 4
# How it was run: as §1
# PHF21A = settings: arrays performed twice; for Array Heatmap value (peptide array binding signal): PHF21A, GST-tagged, n of 4
# How it was run: as §1
# ING1 = settings: arrays performed twice; for Array Heatmap value (peptide array binding signal): ING1, GST-tagged, n of 4
# How it was run: as §1
# KDM4C (TTP) = settings: arrays performed twice; for Array Heatmap value (peptide array binding signal): KDM4C (TTP), GST-tagged, n of 4
# How it was run: as §1
# PHF23 = settings: arrays performed twice; for Array Heatmap value (peptide array binding signal): PHF23, GST-tagged, n of 4
# How it was run: as §1
# ING4 = settings: arrays performed twice; for Array Heatmap value (peptide array binding signal): ING4, GST-tagged, n of 4
# How it was run: as §1
# ING2 = settings: arrays performed twice; for Array Heatmap value (peptide array binding signal): ING2, GST-tagged, n of 4
# How it was run: as §1
# RAG2 = settings: arrays performed twice; for Array Heatmap value (peptide array binding signal): RAG2, GST-tagged, n of 4
# How it was run: as §1
# SP140L = settings: arrays performed twice; for Array Heatmap value (peptide array binding signal): SP140L, GST-tagged, n of 4
# How it was run: as §1
# AIRE (PP) = settings: arrays performed twice; for Array Heatmap value (peptide array binding signal): AIRE (PP), GST-tagged, n of 4
# How it was run: as §1
# DIDO1 = settings: arrays performed twice; for Array Heatmap value (peptide array binding signal): DIDO1, GST-tagged, n of 4
# How it was run: as §1
# MLL5 = settings: arrays performed twice; for Array Heatmap value (peptide array binding signal): MLL5, GST-tagged, n of 4
# How it was run: as §1
# KDM5A (3) = settings: arrays performed twice; for Array Heatmap value (peptide array binding signal): KDM5A (3), GST-tagged, n of 4
# How it was run: as §1
# KDM7A = settings: arrays performed twice; for Array Heatmap value (peptide array binding signal): KDM7A, GST-tagged, n of 4
# How it was run: as §1
# PHF13 = settings: arrays performed twice; for Array Heatmap value (peptide array binding signal): PHF13, GST-tagged, n of 4
# How it was run: as §1
# MORC3 (CW) = settings: arrays performed twice; for Array Heatmap value (peptide array binding signal): MORC3 (CW), GST-tagged, n of 4
# How it was run: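 Steps: express and purify GST-tagged PHD reader; incubate 0.5 μM protein on a peptide microarray (293 histone peptides, single or combined PTMs) following an optimized protocol; average signal across 4 replicates.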
# KDM5B (1) = settings: arrays performed twice; for Array Heatmap value (peptide array binding signal): KDM5B (1), GST-tagged, n of 4
# How it was run: as §1
# PHF8 = settings: arrays performed twice; for Array Heatmap value (peptide array binding signal): PHF8, GST-tagged, n of 4
# How it was run: as §1
# KDM5B (3) = settings: arrays performed twice; for Array Heatmap value (peptide array binding signal): KDM5B (3), GST-tagged, n of 4
# How it was run: as §1
# TAF3 = settings: arrays performed twice; for Array Heatmap value (peptide array binding signal): TAF3, GST-tagged, n of 4
# How it was run: as §1
# CHD5 (PCC) = settings: arrays performed twice; for Array Heatmap value (peptide array binding signal): CHD5 (PCC), GST-tagged, n of 4
# How it was run: as §1
# BAZ2B = settings: arrays performed twice; for Array Heatmap value (peptide array binding signal): BAZ2B, GST-tagged, n of 4
# How it was run: as §1
# PHF2 = settings: arrays performed twice; for Array Heatmap value (peptide array binding signal): PHF2, GST-tagged, n of 4
# How it was run: as §1
# DPF2 (PPC2W2) = settings: arrays performed twice; for Array Heatmap value (peptide array binding signal): DPF2 (PPC2W2), GST-tagged, n of 4
# How it was run: as §1
# TRIM66 (PB) = settings: arrays performed twice; for Array Heatmap value (peptide array binding signal): TRIM66 (PB), GST-tagged, n of 4
# How it was run: as §1
substance,measurement,setting,value
H3K36me2 (21-44): H3 21-44,Array Heatmap value (peptide array binding signal),PHRF1 (RP),0.4299
same,Array Heatmap value (peptide array binding signal),CHD4 (PPCC),0.5705
same,Array Heatmap value (peptide array binding signal),ING5,0.3689
same,Array Heatmap value (peptide array binding signal),KDM5A (1),0.4698
same,Array Heatmap value (peptide array binding signal),ING3,0.4835
same,Array Heatmap value (peptide array binding signal),BPTF (PB),0.3564
same,Array Heatmap value (peptide array binding signal),CHD5 (PPCC),0.5556
same,Array Heatmap value (peptide array binding signal),PHF21A,0.4543
same,Array Heatmap value (peptide array binding signal),ING1,0.5436
same,Array Heatmap value (peptide array binding signal),KDM4C (TTP),0.482
same,Array Heatmap value (peptide array binding signal),PHF23,0.5508
same,Array Heatmap value (peptide array binding signal),ING4,0.4701
same,Array Heatmap value (peptide array binding signal),ING2,0.637
same,Array Heatmap value (peptide array binding signal),RAG2,0.2578
same,Array Heatmap value (peptide array binding signal),SP140L,0.3575
same,Array Heatmap value (peptide array binding signal),AIRE (PP),0.4141
same,Array Heatmap value (peptide array binding signal),DIDO1,0.6879
same,Array Heatmap value (peptide array binding signal),MLL5,0.5622
same,Array Heatmap value (peptide array binding signal),KDM5A (3),0.4688
same,Array Heatmap value (peptide array binding signal),KDM7A,0.3485
same,Array Heatmap value (peptide array binding signal),PHF13,0.6322
same,Array Heatmap value (peptide array binding signal),MORC3 (CW),0.3825
same,Array Heatmap value (peptide array binding signal),KDM5B (1),0.6467
same,Array Heatmap value (peptide array binding signal),PHF8,0.3633
same,Array Heatmap value (peptide array binding signal),KDM5B (3),0.4626
same,Array Heatmap value (peptide array binding signal),TAF3,0.2772
same,Array Heatmap value (peptide array binding signal),CHD5 (PCC),0.7486
same,Array Heatmap value (peptide array binding signal),BAZ2B,0.4646
same,Array Heatmap value (peptide array binding signal),PHF2,0.5405
same,Array Heatmap value (peptide array binding signal),DPF2 (PPC2W2),0.6298
same,Array Heatmap value (peptide array binding signal),TRIM66 (PB),0.5817
H3K36me3 (21-44): H3 21-44,Array Heatmap value (peptide array binding signal),PHRF1 (RP),0.4375
same,Array Heatmap value (peptide array binding signal),CHD4 (PPCC),0.5871
same,Array Heatmap value (peptide array binding signal),ING5,0.3678
same,Array Heatmap value (peptide array binding signal),KDM5A (1),0.4698
same,Array Heatmap value (peptide array binding signal),ING3,0.4991
same,Array Heatmap value (peptide array binding signal),BPTF (PB),0.352
same,Array Heatmap value (peptide array binding signal),CHD5 (PPCC),0.5621
same,Array Heatmap value (peptide array binding signal),PHF21A,0.4681
same,Array Heatmap value (peptide array binding signal),ING1,0.5613
same,Array Heatmap value (peptide array binding signal),KDM4C (TTP),0.4879
same,Array Heatmap value (peptide array binding signal),PHF23,0.5628
same,Array Heatmap value (peptide array binding signal),ING4,0.4583
same,Array Heatmap value (peptide array binding signal),ING2,0.6072
same,Array Heatmap value (peptide array binding signal),RAG2,0.2418
same,Array Heatmap value (peptide array binding signal),SP140L,0.3526
same,Array Heatmap value (peptide array binding signal),AIRE (PP),0.4385
same,Array Heatmap value (peptide array binding signal),DIDO1,0.7273
same,Array Heatmap value (peptide array binding signal),MLL5,0.5803
same,Array Heatmap value (peptide array binding signal),KDM5A (3),0.4295
same,Array Heatmap value (peptide array binding signal),KDM7A,0.3622
same,Array Heatmap value (peptide array binding signal),PHF13,0.6462
same,Array Heatmap value (peptide array binding signal),MORC3 (CW),0.351
same,Array Heatmap value (peptide array binding signal),KDM5B (1),0.6524
same,Array Heatmap value (peptide array binding signal),PHF8,0.3546
same,Array Heatmap value (peptide array binding signal),KDM5B (3),0.4778
same,Array Heatmap value (peptide array binding signal),TAF3,0.2673
same,Array Heatmap value (peptide array binding signal),CHD5 (PCC),0.7751
same,Array Heatmap value (peptide array binding signal),BAZ2B,0.4726
same,Array Heatmap value (peptide array binding signal),PHF2,0.5258
same,Array Heatmap value (peptide array binding signal),DPF2 (PPC2W2),0.6719
same,Array Heatmap value (peptide array binding signal),TRIM66 (PB),0.6062
"H3K56ac (52-61): H3 52-61 (RRYQK(Ac)STELL; UniProt P68431 53-62, looked up, fragment)","Array Heatmap signal, PHRF1 (RP)","PHRF1 (RP); sheet ""Array Heatmap"", GST-tagged PHRF1 (RP), total replicate number n = 4",0.4575
same,"Array Heatmap signal, CHD4 (PPCC)","CHD4 (PPCC); sheet ""Array Heatmap"", GST-tagged CHD4 (PPCC), total replicate number n = 4",0.5636
same,"Array Heatmap signal, ING5","ING5; sheet ""Array Heatmap"", GST-tagged ING5, total replicate number n = 4",0.365
same,"Array Heatmap signal, KDM5A (1)","KDM5A (1); sheet ""Array Heatmap"", GST-tagged KDM5A (1), total replicate number n = 4",0.4791
same,"Array Heatmap signal, ING3","ING3; sheet ""Array Heatmap"", GST-tagged ING3, total replicate number n = 4",0.475
same,"Array Heatmap signal, BPTF (PB)","BPTF (PB); sheet ""Array Heatmap"", GST-tagged BPTF (PB), total replicate number n = 4",0.3515
same,"Array Heatmap signal, CHD5 (PPCC)","CHD5 (PPCC); sheet ""Array Heatmap"", GST-tagged CHD5 (PPCC), total replicate number n = 4",0.5505
same,"Array Heatmap signal, PHF21A","PHF21A; sheet ""Array Heatmap"", GST-tagged PHF21A, total replicate number n = 4",0.4604
same,"Array Heatmap signal, ING1","ING1; sheet ""Array Heatmap"", GST-tagged ING1, total replicate number n = 4",0.5577
same,"Array Heatmap signal, KDM4C (TTP)","KDM4C (TTP); sheet ""Array Heatmap"", GST-tagged KDM4C (TTP), total replicate number n = 4",0.4844
same,"Array Heatmap signal, PHF23","PHF23; sheet ""Array Heatmap"", GST-tagged PHF23, total replicate number n = 4",0.5106
same,"Array Heatmap signal, ING4","ING4; sheet ""Array Heatmap"", GST-tagged ING4, total replicate number n = 4",0.4689
same,"Array Heatmap signal, ING2","ING2; sheet ""Array Heatmap"", GST-tagged ING2, total replicate number n = 4",0.6013
same,"Array Heatmap signal, RAG2","RAG2; sheet ""Array Heatmap"", GST-tagged RAG2, total replicate number n = 4",0.2388
same,"Array Heatmap signal, SP140L","SP140L; sheet ""Array Heatmap"", GST-tagged SP140L, total replicate number n = 4",0.3649
same,"Array Heatmap signal, AIRE (PP)","AIRE (PP); sheet ""Array Heatmap"", GST-tagged AIRE (PP), total replicate number n = 4",0.4476
same,"Array Heatmap signal, DIDO1","DIDO1; sheet ""Array Heatmap"", GST-tagged DIDO1, total replicate number n = 4",0.7019
same,"Array Heatmap signal, MLL5","MLL5; sheet ""Array Heatmap"", GST-tagged MLL5, total replicate number n = 4",0.5378
same,"Array Heatmap signal, KDM5A (3)","KDM5A (3); sheet ""Array Heatmap"", GST-tagged KDM5A (3), total replicate number n = 4",0.4545
same,"Array Heatmap signal, KDM7A","KDM7A; sheet ""Array Heatmap"", GST-tagged KDM7A, total replicate number n = 4",0.3406
same,"Array Heatmap signal, PHF13","PHF13; sheet ""Array Heatmap"", GST-tagged PHF13, total replicate number n = 4",0.6129
same,"Array Heatmap signal, MORC3 (CW)","MORC3 (CW); sheet ""Array Heatmap"", GST-tagged MORC3 (CW), total replicate number n = 4",0.3491
same,"Array Heatmap signal, KDM5B (1)","KDM5B (1); sheet ""Array Heatmap"", GST-tagged KDM5B (1), total replicate number n = 4",0.5943
same,"Array Heatmap signal, PHF8","PHF8; sheet ""Array Heatmap"", GST-tagged PHF8, total replicate number n = 4",0.3512
same,"Array Heatmap signal, KDM5B (3)","KDM5B (3); sheet ""Array Heatmap"", GST-tagged KDM5B (3), total replicate number n = 4",0.4628
same,"Array Heatmap signal, TAF3","TAF3; sheet ""Array Heatmap"", GST-tagged TAF3, total replicate number n = 4",0.2638
same,"Array Heatmap signal, CHD5 (PCC)","CHD5 (PCC); sheet ""Array Heatmap"", GST-tagged CHD5 (PCC), total replicate number n = 4",0.7293
same,"Array Heatmap signal, BAZ2B","BAZ2B; sheet ""Array Heatmap"", GST-tagged BAZ2B, total replicate number n = 4",0.4578
same,"Array Heatmap signal, PHF2","PHF2; sheet ""Array Heatmap"", GST-tagged PHF2, total replicate number n = 4",0.5355
same,"Array Heatmap signal, DPF2 (PPC2W2)","DPF2 (PPC2W2); sheet ""Array Heatmap"", GST-tagged DPF2 (PPC2W2), total replicate number n = 4",0.7093
same,"Array Heatmap signal, TRIM66 (PB)","TRIM66 (PB); sheet ""Array Heatmap"", GST-tagged TRIM66 (PB), total replicate number n = 4",0.5346
